Results: ChEMBL document CHEMBL1128016, “5-Cyano-2-thiouracils and their derivatives: a new class of leishmanicides” (1994)

Key:
Leishmania donovani [1] = assay: In vivo anti-leishmanial activity was determined against hamster amastigotes of Leishmania donovani; type: functional; parameters: concentration or dose not given beside the values
Leishmania donovani [2] = assay: In vivo anti-leishmanial activity against hamster amastigotes of Leishmania donovani at a dose of 10 mg/kg for a period of 5 days; type: functional, organism-based; parameters: dose 10 mg/kg

Compound	Inhibition (Leishmania donovani [1])	inhibition (Leishmania donovani [2])
COc1cccc(-c2nc3n(c(=O)c2C#N)CCCS3)c1	63%	
C=CCSc1nc(O)c(C#N)c(-c2ccc(C)cc2)n1	75%	
COc1cccc(-c2nc(SCc3ccc(Cl)cc3)nc(O)c2C#N)c1	85%	
CCc1nc(SCc2ccc(Cl)cc2)nc(O)c1C#N	76%	
CSc1nc(Cl)c(C#N)c(-c2ccc(C)cc2)n1	36%	
N#Cc1c(O)nc(S)nc1-c1ccccc1Cl	0%	
COc1cccc(-c2nc(S)nc(O)c2C#N)c1	78%	
Sodium stibogluconate		86%
Cc1cccc(-c2nc(SCc3ccccc3)nc(O)c2C#N)c1	0%	
N#Cc1c(Nc2ccccc2)nc(SCc2ccccc2)nc1-c1cccnc1	57%	
CCC1NC(=S)NC(=O)C1C#N (centres undefined)	80%	
COc1cccc(-c2nc3n(c(=O)c2C#N)CCS3)c1	73%	
Cc1ccc(-c2nc(SCc3ccccc3)[nH]c(=O)c2C#N)cc1	82%	
COc1cccc(-c2nc(SCc3ccccc3)nc(O)c2C#N)c1	0%	
N#Cc1c(O)nc(SCc2ccc(Cl)cc2)nc1-c1cccnc1	84%	
CSc1nc(-c2ccc(C)cc2)c(C#N)c(=O)n1C	50%	
Cc1ccc(-c2nc(S)nc(O)c2C#N)cc1	63%	
N#Cc1c(O)nc(S)nc1-c1ccc(F)cc1	63%	
N#Cc1c(Nc2ccc(F)cc2)nc(SCc2ccccc2)nc1-c1cccnc1	78%	
Cc1ccc(-c2nc3n(c(=O)c2C#N)CCS3)cc1	65%	
C=CCSc1nc(O)c(C#N)c(-c2cccc(OC)c2)n1	80%	
COc1cccc(-c2nc(SC)nc(Cl)c2C#N)c1	30%	
Cc1ccc(-c2nc3n(c(=O)c2C#N)CCCS3)cc1	62%	
COc1cccc(-c2nc(SC)n(C)c(=O)c2C#N)c1	61%	
